Data reported in US5663148A, “Anaphylatoxin receptor ligands containing lipophilic residues” (Abbott Laboratories, priority 1994, dated 1997).
*1 amine or outer side, *2 acyl side, *3 side chain or, on linkers, in order; H or OH if unused. Where a SMILES comes first, the peptide text is derived from it. [ ]: non-standard residue; d: D form. The star is where a group is joined. X5 = O=C([C@H](CC1CCCCC1)N(Cc1ccccc1)[*:1])[*:2]; X9 = CN(CCCc1ccccc1)[C@@H](CC1CCCCC1)C(=O)*; d(hhPhe) = N[C@H](CCCc1ccccc1)C(=O)O; X4 = O=C(C=Cc1ccccc1[N+](=O)[O-])*; hhPhe = N[C@@H](CCCc1ccccc1)C(=O)O; Hydrocinnamoyl = O=C(CCc1ccccc1)*; Cha = N[C@@H](CC1CCCCC1)C(=O)O; X10 = O=C(Cc1c[nH]c2ccccc12)*; X6 = O=C(c1cc2ccccc2[nH]1)*; X3 = Nc1ccccc1C=CC(=O)*; PhAc = O=C(Cc1ccccc1)*; Ahp = NCCCCCCC(=O)O

Target: T1, C5a receptor (Homo sapiens, UniProt P21730)
T1 construct: from tissue; host or cells: polymorphonuclear leukocyte (PMNL) membrane fragments
T1 sequence (P21730 1-350): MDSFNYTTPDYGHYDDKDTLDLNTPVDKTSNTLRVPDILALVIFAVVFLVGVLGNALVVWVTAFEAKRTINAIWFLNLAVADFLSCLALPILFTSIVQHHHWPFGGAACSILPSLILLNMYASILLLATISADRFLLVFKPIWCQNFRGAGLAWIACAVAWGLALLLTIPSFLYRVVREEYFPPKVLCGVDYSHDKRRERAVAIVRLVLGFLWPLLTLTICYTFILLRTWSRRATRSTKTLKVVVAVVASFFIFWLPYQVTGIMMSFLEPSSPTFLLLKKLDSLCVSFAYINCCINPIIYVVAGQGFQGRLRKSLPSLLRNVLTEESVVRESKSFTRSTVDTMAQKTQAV
Test: Anaphylatoxin (C5a) receptor binding Ki determination, 125I-C5a on PMNL membrane fragments
Details: read-out: Ki (In vitro C5a Receptor Binding Potency)
Description: The membrane-bound radiolabeled C5a was separated from the free radiolabeled C5a by filtration, and the recovered gamma radioactivity was measured. […] Free and membrane-bound ligand were separated by filtration.

Row | Structure (SMILES) | Ki
1 | CC(C)C[C@H](NC(=O)CNC(=O)[C@H](CC1CCCCC1)N(Cc1ccccc1)C(=O)CCCCCCN)C(=O)N[C@H](CCCc1ccccc1)C(=O)N[C@@H](CCCNC(=N)N)C(=O)O [Example 64, N-(7-Aminoheptanoyl)-{(2S)-2-Amino-3-cyclohexylpropanoyl}(N-Benzyl)-Glycyl-Leucyl-{(R)-2-Amino-5-phenylpentanoyl}-Arginyl-OH] (H-[Ahp][X5]GL[d(hhPhe)]R-OH) | 0.47 µM
2 | CC(C)C[C@H](NC(=O)CNC(=O)[C@H](CC1CCCCC1)NC(=O)NCc1cccc(CN)c1)C(=O)NC(CCCc1ccccc1)C(=O)N[C@@H](CCCNC(=N)N)C(=O)O (single isomer, unassigned) [Example 142] | 1.3 µM
3 | CC(C)C[C@H](NC(=O)CNC(=O)[C@H](CC1CCCCC1)NC(=O)CN(C)C(=O)CCCN)C(=O)NC(CCCc1ccccc1)C(=O)N[C@@H](CCCNC(=N)N)C(=O)O (single isomer, unassigned) [Example 112] | 17.8 µM
4 | CC(C)C[C@H](NC(=O)CNC(=O)C=Cc1ccccc1[N+](=O)[O-])C(=O)N[C@H](CCCc1ccccc1)C(=O)N[C@@H](CCCNC(=N)N)C(=O)O [Example 107, N-(2-Nitrocinnamoyl)-Glycyl-Leucyl-{(R)-2-Amino-5-phenylpentanoyl}-Arginyl-OH] (X4-GL[d(hhPhe)]R-OH) | 0.087 µM
5 | CC(C)C[C@H](NC(=O)CNC(=O)CCc1ccccc1)C(=O)N[C@H](CCCc1ccccc1)C(=O)N[C@@H](CCCNC(=N)N)C(=O)O [Example 92, N-(3-Phenylpropanoyl)-Glycyl-Leucyl-{(R)-2-Amino-5-phenylpentanoyl}-Arginyl-OH] (Hydrocinnamoyl-GL[d(hhPhe)]R-OH) | 0.75 µM
6 | CC(C)C[C@H](NC(=O)CNC(=O)[C@H](CC1CCCCC1)NC(=O)CCCCN)C(=O)NC(CCCc1ccccc1)C(=O)N[C@@H](CCCNC(=N)N)C(=O)O (single isomer, unassigned) [Example 140] | 18.6 µM
7 | CC(C)C[C@H](NC(=O)CNC(=O)[C@@H](CC1CCCCC1)NC(=O)CCCCCN)C(=O)NC(CCCc1ccccc1)C(=O)N[C@@H](CCCNC(=N)N)C(=O)O (single isomer, unassigned) [Example 34] | 21.6 µM
8 | CC(C)C[C@H](NC(=O)CNC(=O)Cc1c[nH]c2ccccc12)C(=O)N[C@H](CCCc1ccccc1)C(=O)N[C@@H](CCCNC(=N)N)C(=O)O [Example 50, N-(Indole-3-acetyl)-Glycyl-Leucyl-{(R)-2-Amino-5-phenylpentanoyl}-Arginyl-O] (X10-GL[d(hhPhe)]R-OH) | 0.19 µM
9 | CC(C)C[C@@H](C(=O)NC(CCCc1ccccc1)C(=O)N[C@@H](CCCNC(=N)N)C(=O)O)N(C)C(=O)CNC(=O)[C@H](CC1CCCCC1)NC(=O)CCCCCCN (mixture of isomers) [Example 27, N-(7-Aminoheptanoyl)-{(2S)-2-Amino-3-cyclohexylpropanoyl}-Glycyl-Leucyl(N-methyl)-{(R/S)-2-Amino-5-phenylpentanoyl}-Arginyl-OH] | 0.45 µM
10 | CC(C)C[C@H](NC(=O)[C@@H](CCCCN)NC(=O)[C@@H](N)CC1CCCCC1)C(=O)NC(CCCc1ccccc1)C(=O)N[C@@H](CCCNC(=N)N)C(=O)O (mixture of isomers) [Example 98, H-{(2S)-2-Amino-3-cyclohexylpropanoyl}-DLysyl-Leucyl-{(R/S)-2-Amino-5-phenylpentanoyl}-Arginyl-OH] | 44.7 µM
11 | CC(C)C[C@H](NC(=O)[C@@H](C)NC(=O)[C@H](CC1CCCCC1)NC(=O)CCCCCN)C(=O)NC(CCCc1ccccc1)C(=O)N[C@@H](CCCNC(=N)N)C(=O)O (single isomer, unassigned) [Example 127] | 23.3 µM
12 | CC(C)C[C@@H](NC(=O)CNC(=O)[C@H](CC1CCCCC1)NC(=O)CCCCCN)C(=O)NC(CCCc1ccccc1)C(=O)N[C@@H](CCCNC(=N)N)C(=O)O (single isomer, unassigned) [Example 99] | 4.8 µM
13 | CC(C)C[C@H](NC(=O)CNC(=O)[C@H](CC1CCCCC1)NC(=O)CCN)C(=O)NC(CCCc1ccccc1)C(=O)N[C@@H](CCCNC(=N)N)C(=O)O (single isomer, unassigned) [Example 85] | 2 µM
14 | CC(C)C[C@H](NC(=O)CNC(=O)C(N)CCCc1ccccc1)C(=O)N[C@H](CCCc1ccccc1)C(=O)N[C@@H](CCCNC(=N)N)C(=O)O (single isomer, unassigned) [Example 105] | 0.33 µM
15 | CC(C)[C@H](NC(=O)CNC(=O)[C@H](CC1CCCCC1)NC(=O)CCCCCN)C(=O)NC(CCCc1ccccc1)C(=O)N[C@@H](CCCNC(=N)N)C(=O)O (single isomer, unassigned) [Example 102, N-(6-Aminohexanoyl)-{(2S)-2-Amino-3-cyclohexylpropanoyl}-Glycyl-Valyl-{(FFS)-2-Amino-5-phenylpentanoyl}-Arginyl-OH] | 21.7 µM
16 | CC(C)C[C@H](NC(=O)CNC(=O)[C@H](CC1CCCCC1)N(C)C(=O)CCCCN)C(=O)NC(CCCc1ccccc1)C(=O)N[C@@H](CCCNC(=N)N)C(=O)O (single isomer, unassigned) [Example 36] | 9.7 µM
17 | CC(C)C[C@H](NC(=O)CNC(=O)[C@H](CC1CCCCC1)NC(=O)Cc1ccccc1)C(=O)N[C@H](CCCc1ccccc1)C(=O)N[C@@H](CCCNC(=N)N)C(=O)O [Example 47, N-Phenylacetyl-{(2S)-2-Amino-3-cyclohexylpropanoyl}-Glycyl-Leucyl-{(R)-2-Amino-5-phenylpentanoyl}-Arginyl-OH] (PhAc-[Cha]GL[d(hhPhe)]R-OH) | 1.1 µM
18 | CN[C@@H](Cc1ccccc1)C(=O)N[C@@H](CCCCN)C(=O)N1CCC[C@H]1C(=O)N[C@@H](CC1CCCCC1)C(=O)N[C@@H](C)C(=O)N[C@@H](CC(C)C)C(=O)NC(CCCc1ccccc1)C(=O)N[C@@H](CCCNC(=N)N)C(=O)O (single isomer, unassigned) [Example 128] | 0.027 µM
19 | CC(C)C[C@H](NC(=O)CNC(=O)[C@H](CC1CCCCC1)NC(=O)CN)C(=O)NC(CCCc1ccccc1)C(=O)N[C@@H](CCCNC(=N)N)C(=O)O (single isomer, unassigned) [Example 72] | 4.27 µM
20 | CC(C)C[C@H](NC(=O)CNC(=O)c1cc2ccccc2[nH]1)C(=O)N[C@H](CCCc1ccccc1)C(=O)N[C@@H](CCCNC(=N)N)C(=O)O [Example 131, N-[(Indol-2-yl)-carbonyl]-Glycyl-Leucyl-{(R)-2-Amino-5-phenylpentanoyl}-Arginyl-OH] (X6-GL[d(hhPhe)]R-OH) | 0.56 µM
21 | CC(C)C[C@H](NC(=O)CN(C)C(=O)[C@H](CC1CCCCC1)NC(=O)CCCCCCN)C(=O)NC(CCCc1ccccc1)C(=O)N[C@@H](CCCNC(=N)N)C(=O)O (single isomer, unassigned) [Example 61] | 3.2 µM
22 | CC(C)C[C@H](NC(=O)CNC(=O)[C@H](CC1CCCCC1)N(C)C(=O)CCCCCCN)C(=O)NC(CCCc1ccccc1)C(=O)N[C@@H](CCCNC(=N)N)C(=O)O (single isomer, unassigned) [Example 75] | 17.2 µM
23 | CC(C)C[C@H](NC(=O)CNC(=O)[C@H](CC1CCCCC1)NC(=O)[C@H](N)CCCCN)C(=O)NC(CCCc1ccccc1)C(=O)N[C@@H](CCCNC(=N)N)C(=O)O (single isomer, unassigned) [Example 56] | 26.8 µM
24 | N=C(N)NCCC[C@H](NC(=O)C(CCCc1ccccc1)NC(=O)CN(Cc1ccccc1)C(=O)[C@H](CCCCN)NC(=O)[C@@H](N)Cc1ccccc1)C(=O)O (single isomer, unassigned) [Example 95, H-Phenylalanyl-Lysyl-Glycyl(N-benzyl)-{(R/S)-2-Amino-5-phenylpentanoyl}-Arginyl-OH] | 34 µM
25 | CC(C)C[C@H](NC(=O)CCNC(=O)[C@H](CC1CCCCC1)NC(=O)CCCCCN)C(=O)NC(CCCc1ccccc1)C(=O)N[C@@H](CCCNC(=N)N)C(=O)O (single isomer, unassigned) [Example 115] | 5.6 µM
26 | CC(C)C[C@H](NC(=O)CNC(=O)[C@H](CC1CCCCC1)N(C)CCCc1ccccc1)C(=O)N[C@H](CCCc1ccccc1)C(=O)N[C@@H](CCCNC(=N)N)C(=O)O [Example 103, N-(3-Phenylpropyl)-N-methyl-{(2S)-2-Amino-3-cyclohexylpropanoyl}-Glycyl-Leucyl-{(R)-2-Amino-5-phenylpentanoyl}-Arginyl-OH] (X9-GL[d(hhPhe)]R-OH) | 1.32 µM
27 | C[C@H](NC(=O)CNC(=O)[C@@H](N)CC1CCCCC1)C(=O)NC(CCCc1ccccc1)C(=O)N[C@@H](CCCNC(=N)N)C(=O)O (mixture of isomers) [Example 59, H-{(2S)-2-Amino-3-cyclohexylpropanoyl}-Glycyl-Alanyl-{(±)-2-Amino-5-phenylpentanoyl}-Arginyl-OH] | 67 µM
28 | CC(C)C[C@H](NC(=O)[C@H](C)NC(=O)[C@H](CC1CCCCC1)NC(=O)[C@@H]1CCCN1C(=O)[C@H](CCCCN)NC(=O)[C@@H](N)Cc1ccccc1)C(=O)N[C@@H](CCCc1ccccc1)C(=O)N[C@@H](CCCNC(=N)N)C(=O)O [Example 3, H-Phenylalanyl-Lysyl-Prolyl-{(2S)-2-Amino-3-cyclohexylpropanoyl}-Alanyl-Leucyl-{(S)-2-Amino-5-phenylpentanoyl}-Arginyl-OH] (H-FKP[Cha]AL[hhPhe]R-OH) | 0.013 µM
29 | CC(C)C[C@H](NC(=O)CNC(=O)C=Cc1ccccc1N)C(=O)N[C@H](CCCc1ccccc1)C(=O)N[C@@H](CCCNC(=N)N)C(=O)O [Example 106, N-(2-Aminocinnamoyl)-Glycyl-Leucyl-{(R)-2-Amino-5-phenylpentanoyl}-Arginyl-OH] (X3-GL[d(hhPhe)]R-OH) | 0.41 µM
